Here are results for 8 compounds from PubChem BioAssay (NCI).

Holding throughout (assay): NCI anticancer screen, dose series, 48 h
The test system of test [1] is EKVX NSCLC.
Test [2] relates to ACHN renal.
Test [3] concerns UACC-62 melanoma.
The test system of test [4] is HCT-116 colon.
Test [5] has as its system RPMI-8226 leukemia.
In test [6] the test system is MDA-MB-231 breast.
Test [7] relates to OVCAR-5 ovarian.
Test [8] deals with SNB-75 CNS.
The test system of test [9] is SR leukemia.
Test [10] relates to SF-295 CNS.
Test [11] deals with HCT-15 colon.
Test [12] has as its system MDA-N.
Test [13] relates to A498 renal.
Test [14] has as its system NCI-H226 lung.
In test [15] the test system is T-47D breast.
For test [16], the system named is HCC-2998 colon.
Test [17] concerns OVCAR-4 ovarian.
Test [18] deals with NCI-H460 lung.
Test [19] relates to CCRF-CEM leukemia.
Test [20] concerns PC-3 prostate.

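Five compound concentrations were applied to cells in 96-well plates for 48 hours; endpoints were derived by simple linear interpolation of the resulting dose-response curve. TGI: total growth inhibition.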 Where only a bound is given, the exact number is not on record here.

For the compound `O=C1c2cccnc2S(=O)N1Cc1ccccc1` (stereo unspecified), the TGI in test [1], in test [2], in [3], in test [4], in test [5] and in test [6] was over 100 µM each time. Also, the TGI in [7], in test [8], in test [9], in [10], in test [11] and in test [12] was over 100 µM in each case. Moreover, the TGI in [13], in [14], in [15], in test [16], in test [17] and in test [18] was over 100 µM in each case. The same compound came in with a TGI in test [19] of over 100 µM.

With `CCCCOC(=O)C1CN2C=CC=NC2=NC1(C(F)(F)F)C(F)(F)F` (stereo unspecified), the TGI in [1], in test [2], in test [3], in test [4], in test [5] and in test [6] was over 100 µM in each case. Moreover, the TGI in test [7], in [8], in test [10], in test [11], in [12] and in [13] was over 100 µM throughout. Besides, the TGI in test [20], in test [14], in test [15], in test [16], in [17] and in [18] was over 100 µM each time. In test [19], this compound had a TGI of over 100 µM.

For `Nc1ncnc2c1ncn2C1C=CC(CP(=O)(O)O)C1` (stereo unspecified), the TGI in test [1], in test [2], in [3], in test [4], in test [5] and in test [6] was over 100 µM throughout. Moreover, the TGI in test [7], in test [8], in [9], in test [10], in test [11] and in test [12] was over 100 µM each time. Moreover, the TGI in [20], in test [14], in [15], in [16], in [17] and in test [18] was over 100 µM in each case.

Turning to `CCc1ccc(Nc2cc(=O)[nH]c(SCc3ccccc3)n2)cc1`, the TGI in [1], in [2], in test [3], in test [4], in [5] and in test [6] was over 100 µM in each case. For the same compound, the TGI in [7], in test [8], in test [9], in test [10], in test [11] and in test [12] was over 100 µM each time. The TGI in test [13], in [14], in [15] and in test [19] was over 100 µM each time.

On to `O=CN1CCN(C(=O)c2cc(Cl)cc(Cl)c2)C1=S`, for which the TGI in test [1] came to 32.3 µM; in test [2], 31.7 µM; in test [3] it was 31.2 µM; in test [4], 32.7 µM; in test [5], 5.64 µM; in test [6] it was 33.8 µM. The TGI is 44.2 µM in test [7]; 27 µM in [8]; 36 µM in test [10]; 35.2 µM in [11]; 35.4 µM in test [12]; 29.6 µM in [13]. Further, the TGI in test [20] stood at 35.8 µM; in test [14] it was 32.7 µM; in test [15], 36.7 µM; in test [16] it was 31.9 µM; in test [17], 33.4 µM; in test [18], 51.2 µM. This compound came in with a TGI in [19] of 25.5 µM.

With `CC(=O)OCC1OC(n2c(C)c(N=Nc3ccccc3)c(C)c(C#N)c2=S)C(OC(C)=O)C(OC(C)=O)C1OC(C)=O` (stereo unspecified), the TGI in [2] was over 100 µM; in test [3], 33.3 µM; in test [4], 60 µM; in test [5], over 100 µM; in test [6], 62.3 µM; in test [7], over 100 µM. Also, the TGI is 7.03 µM in test [8]; over 100 µM in test [9]; 44.1 µM in test [10]; over 100 µM in test [12]; over 100 µM in [20]; over 100 µM in [15]. Besides, the TGI in test [16], in test [17], in test [18] and in [19] was over 100 µM throughout.

Consider `C=C(C)CC1=C(OCC)C(OC)(OCC)C1=O` (stereo unspecified), for which the TGI in [1], in [2], in test [3], in test [4], in test [6] and in test [7] was over 100 µM throughout. The TGI in [8], in test [10], in test [11], in test [12], in test [13] and in [20] was over 100 µM each time. Also, the TGI in [14], in test [15], in test [17], in test [18] and in [19] was over 100 µM in each case.

Regarding `COC(=O)CCC(NC(=O)C(C)NC(=O)COC1C(O)C(OC(=O)CCNc2c3ccccc3nc3cccc([N+](=O)[O-])c23)OC(OCc2ccccc2)C1NC(C)=O)C(N)=O` (stereo unspecified), the TGI in test [1] was over 10 µM; in [2], over 10 µM; in [3], over 10 µM; in test [4], 9.11 µM; in test [6], over 10 µM; in test [7] it was over 10 µM. Besides, the TGI in test [8] was over 10 µM; in test [10], over 10 µM; in [11], over 10 µM; in [12] it was 6.04 µM; in test [13], over 10 µM; in [20], over 10 µM. In addition, the TGI in test [14] was over 10 µM; in [15], over 10 µM; in test [16], 5.8 µM; in test [18], over 10 µM; in test [19], over 10 µM.
